We go through 15 molecules from paper PMC6627454, “Size and Flexibility Define the Inhibition of the H3N2 Influenza Endonuclease Enzyme by Calix[n]arenes” (Antibiotics, 2019).

For one test, the system named is PA endonuclease. The following applies: cited from earlier work.
The test system of a further test is influenza virus. Also on record: method as in PMID 30184455. As to conditions: clinical trials, compared to oseltamivir; cited from earlier work.
The target of test [1] is H3N2 influenza PA endonuclease (Influenza A virus, UniProt P31343). As to the kind of experiment: PA endonuclease inhibition assay (λ-DNA digestion, agarose gel electrophoresis). In kind it is biochemical, Influenza A/Victoria/3/1975 (H3N2). As to conditions: for IC50: 0.5 µg λ-DNA, PA endonuclease 0.5 mg/mL, 1 h at 37 °C, 1 mM MnCl2, pH 8, 3 measurements; for inhibitory effect on PA endonuclease: macrocycle at 100 µM. As to the method: The digestion activity of the purified PA endonuclease was quantified using agarose gel electrophoresis. A concentration range of PA endonuclease (0.5 mg/mL to 0.5 µg/mL) was mixed with 0.5 µg of λ-DNA (Takara, Japan) in buffer at a final concentration of 20 mM Tris HCl pH 8, 100 mM NaCl, 1 mM MnCl2, 10 mM β-mercaptoethanol. After one hour of incubation at 37 °C, the samples were deposited on ethidium bromide treated agarose gel 0.6% and run during 90 minutes at 75 V. The gel was then scanned (Figure S2). 100 µM solutions of each macrocyclic molecules (Scheme 1) were mixed with 0.5 µg of buffered λ-DNA. This mixture was then combined with the PA endonuclease enzyme and incubated for 1 hour at 37 °C. The samples were deposited on agarose gel 0.6% previously mixed with ethidium bromide and run during 90 minutes at 75 V, after which the gel was scanned. Digestion activity was plotted as a function of inhibitor concentration by quantifying the intensity of the digested bands with ImageJ software. The IC50 values were calculated as in our work on endonuclease inhibition. The intensity of λ-DNA bands was subtracted from negative control (λ-DNA lane) and then normalized from the positive control (λ-DNA and PA protein lane without inhibitor).
100 µM of each macrocyclic molecules β-CDsul, SC[n]a, SC[n]b, and SC[n]c (Figure 1) have been mixed to 0.5 µg of λ-DNA in a buffer at final concentration of 20 mM Tris HCl pH 8, 100 mM NaCl, 1 mM MnCl2, 10 mM β-mercaptoethanol.
The mixture was then mixed with the PA endonuclease enzyme at 0.5 mg/mL and incubated for 1 h at 37 °C.
The samples have been deposited on agarose gel 0.6% previously mixed with ethidium bromide and run over 90 min at 75 V. The gel was then scanned on the ChemiDoc XRS system (Bio-Rad).
The digestion activity is then plotted as a matter of inhibitor concentration by quantifying the intensity of the digested bands with ImageJ software.

The mark [2] stands for this setting: PA endonuclease, in vitro assays only, read-out: Inhibition Activity IC50.

Read-outs that look alike come from different tables or passages of the source.

For `O=C(O)c1c[nH]cc(O)c1=O` [5-hydroxy-4-pyridone-3-carboxy acid], in the test on PA endonuclease (setting [2]), the IC50 – broadly, the concentration that gives 50% inhibition – was 3.23 µM.
For `O=c1[nH]cncc1O` [5-hydroxypyrimidin-4(3H)-one], the IC50 with PA endonuclease (setting [2]) is 0.15 µM.
For the molecule `O=C1c2c(O)c(=O)ccn2N([C@@H]2c3ccccc3SCc3c2ccc(F)c3F)[C@@H]2COCCN12` [Baloxavir Acid], the IC50 with PA endonuclease (PA endonuclease, read-out: Inhibition Activity IC50) was 0.00023 µM; in the test with PA endonuclease (in vitro assay, viral PA polymerase unit, read-out: IC50), 0.0025 µM.
`COC(=O)OCOc1c2n(ccc1=O)N([C@@H]1c3ccccc3SCc3c1ccc(F)c3F)[C@@H]1COCCN1C2=O` [Baloxavir Marboxil]: the “reduction in viral loads” value with influenza virus is recorded as “greater reduction in viral loads”.
Take `O=P(O)(O)Oc1c2cccc1Cc1cccc(c1O)Cc1cccc(c1OP(=O)(O)O)Cc1cccc(c1O)C2` [C4diP, Calix[4]arene dihydroxyphosphonic acid]: in test [1], the IC50 is > 100 µM; the “inhibitory effect on PA endonuclease” value was “neither SC4 and its derivatives nor C4diP show any inhibitory effects”.
Turning to `O=S(=O)(O)OC[C@H]1O[C@@H]2O[C@H]3[C@H](OS(=O)(=O)O)[C@@H](OS(=O)(=O)O)[C@@H](O[C@H]4[C@H](OS(=O)(=O)O)[C@@H](OS(=O)(=O)O)[C@@H](O[C@H]5[C@H](OS(=O)(=O)O)[C@@H](OS(=O)(=O)O)[C@@H](O[C@H]6[C@H](OS(=O)(=O)O)[C@@H](OS(=O)(=O)O)[C@@H](O[C@H]7[C@H](OS(=O)(=O)O)[C@@H](OS(=O)(=O)O)[C@@H](O[C@H]8[C@H](OS(=O)(=O)O)[C@@H](OS(=O)(=O)O)[C@@H](O[C@H]1[C@H](OS(=O)(=O)O)[C@H]2OS(=O)(=O)O)O[C@@H]8COS(=O)(=O)O)O[C@@H]7COS(=O)(=O)O)O[C@@H]6COS(=O)(=O)O)O[C@@H]5COS(=O)(=O)O)O[C@@H]4COS(=O)(=O)O)O[C@@H]3COS(=O)(=O)O` [CD, Sulfated β-cyclodextrin, reference compound], in test [1], the IC50 is > 100 µM.
Regarding `O=S(=O)(O)c1cc2c(O)c(c1)Cc1cc(S(=O)(=O)O)cc(c1O)Cc1cc(S(=O)(=O)O)cc(c1O)Cc1cc(S(=O)(=O)O)cc(c1O)C2` [SC4a, para-sulfonato-calix[4]arene], in test [1], the IC50 was > 100 µM; the “inhibitory effect on PA endonuclease” value was “neither SC4 and its derivatives nor C4diP show any inhibitory effects”.
For `O=S(=O)(O)CCCOc1c2cccc1Cc1cccc(c1OCCCS(=O)(=O)O)Cc1cccc(c1OCCCS(=O)(=O)O)Cc1cccc(c1OCCCS(=O)(=O)O)C2` [SC4b], the IC50 in test [1] was > 100 µM.
Take `O=S(=O)(O)CCCOc1c2cc(S(=O)(=O)O)cc1Cc1cc(S(=O)(=O)O)cc(c1OCCCS(=O)(=O)O)Cc1cc(S(=O)(=O)O)cc(c1OCCCS(=O)(=O)O)Cc1cc(S(=O)(=O)O)cc(c1OCCCS(=O)(=O)O)C2` [SC4c]: the IC50 in test [1] was > 100 µM.
The molecule `O=S(=O)(O)c1cc2c(O)c(c1)Cc1cc(S(=O)(=O)O)cc(c1O)Cc1cc(S(=O)(=O)O)cc(c1O)Cc1cc(S(=O)(=O)O)cc(c1O)Cc1cc(S(=O)(=O)O)cc(c1O)Cc1cc(S(=O)(=O)O)cc(c1O)C2` [SC6a] gave an IC50 in test [1] of 11.2 ± 3.6 µM.
Consider `O=S(=O)(O)CCCOc1c2cccc1Cc1cccc(c1OCCCS(=O)(=O)O)Cc1cccc(c1OCCCS(=O)(=O)O)Cc1cccc(c1OCCCS(=O)(=O)O)Cc1cccc(c1OCCCS(=O)(=O)O)Cc1cccc(c1OCCCS(=O)(=O)O)C2` [SC6b], for which, in test [1], the IC50 is > 100 µM.
Same read-out and setting: for `O=S(=O)(O)CCCOc1c2cc(S(=O)(=O)O)cc1Cc1cc(S(=O)(=O)O)cc(c1OCCCS(=O)(=O)O)Cc1cc(S(=O)(=O)O)cc(c1OCCCS(=O)(=O)O)Cc1cc(S(=O)(=O)O)cc(c1OCCCS(=O)(=O)O)Cc1cc(S(=O)(=O)O)cc(c1OCCCS(=O)(=O)O)Cc1cc(S(=O)(=O)O)cc(c1OCCCS(=O)(=O)O)C2` [SC6c] the value was > 100 µM; for `O=S(=O)(O)c1cc2c(O)c(c1)Cc1cc(S(=O)(=O)O)cc(c1O)Cc1cc(S(=O)(=O)O)cc(c1O)Cc1cc(S(=O)(=O)O)cc(c1O)Cc1cc(S(=O)(=O)O)cc(c1O)Cc1cc(S(=O)(=O)O)cc(c1O)Cc1cc(S(=O)(=O)O)cc(c1O)Cc1cc(S(=O)(=O)O)cc(c1O)C2` [SC8a, para-sulfonato-calix[8]arene], 6.4 ± 1.4 µM.
The molecule `O=S(=O)(O)CCCOc1c2cccc1Cc1cccc(c1OCCCS(=O)(=O)O)Cc1cccc(c1OCCCS(=O)(=O)O)Cc1cccc(c1OCCCS(=O)(=O)O)Cc1cccc(c1OCCCS(=O)(=O)O)Cc1cccc(c1OCCCS(=O)(=O)O)Cc1cccc(c1OCCCS(=O)(=O)O)Cc1cccc(c1OCCCS(=O)(=O)O)C2` [SC8b] displayed an IC50 in test [1] of 14 ± 2.2 µM.
On the same count and under the same terms, for `O=S(=O)(O)CCCOc1c2cc(S(=O)(=O)O)cc1Cc1cc(S(=O)(=O)O)cc(c1OCCCS(=O)(=O)O)Cc1cc(S(=O)(=O)O)cc(c1OCCCS(=O)(=O)O)Cc1cc(S(=O)(=O)O)cc(c1OCCCS(=O)(=O)O)Cc1cc(S(=O)(=O)O)cc(c1OCCCS(=O)(=O)O)Cc1cc(S(=O)(=O)O)cc(c1OCCCS(=O)(=O)O)Cc1cc(S(=O)(=O)O)cc(c1OCCCS(=O)(=O)O)Cc1cc(S(=O)(=O)O)cc(c1OCCCS(=O)(=O)O)C2` [SC8c] the value was 18.7 ± 0.7 µM.
